According to paper PMC7380166, “How to Study the Metabolism of New Psychoactive Substances for the Purpose of Toxicological Screenings—A Follow-Up Study Comparing Pooled Human Liver S9, HepaRG Cells, and Zebrafish Larvae” (Frontiers in Chemistry, 2020):

Columns and labels:
[1] = target: T1, CYP3A5 (Homo sapiens, UniProt P20815); test: Monooxygenases activity screening, CYP3A5; format: in vitro ADME; design: key: +, detected; –: −, not detected; conditions: 25 μM 4F-MDMB-BINACA, 50 pmol/ml enzyme, 30 min, 37°C, duplicate
T1 construct: purchased Corning; host or cells: baculovirus-transfected insect cell microsomes (Supersomes)
T1 sequence (P20815 whole entry): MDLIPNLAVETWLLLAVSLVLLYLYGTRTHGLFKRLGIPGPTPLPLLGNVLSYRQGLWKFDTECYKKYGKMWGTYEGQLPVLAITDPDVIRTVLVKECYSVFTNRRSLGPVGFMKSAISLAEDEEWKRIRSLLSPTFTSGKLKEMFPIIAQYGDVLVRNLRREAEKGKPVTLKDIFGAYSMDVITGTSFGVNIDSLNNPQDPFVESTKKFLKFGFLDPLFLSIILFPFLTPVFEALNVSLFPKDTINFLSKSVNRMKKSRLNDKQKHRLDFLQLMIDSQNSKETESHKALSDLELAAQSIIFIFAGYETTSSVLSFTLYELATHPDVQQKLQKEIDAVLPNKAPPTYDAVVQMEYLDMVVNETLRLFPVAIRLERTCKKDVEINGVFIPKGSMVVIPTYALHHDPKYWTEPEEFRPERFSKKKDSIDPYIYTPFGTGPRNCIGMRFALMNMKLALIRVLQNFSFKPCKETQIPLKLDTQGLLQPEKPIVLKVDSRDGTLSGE
Method: (§1) According to an established protocol (Wagmann et al., [2016]), the final volume per reaction tube was 50 μl with a final 4F-MDMB-BINACA concentration of 25 μM and enzyme concentrations of 50 pmol/ml for CYP1A2, CYP2A6, CYP2B6, CYP2C8, CYP2C9, CYP2C19, CYP2D6, CYP2E1, CYP3A4, and CYP3A5, respectively, or 0.25 mg protein/ml for FMO3. Furthermore, the reaction mixture contained 90 mM phosphate buffer (pH 7.4), superoxide dismutase (200 U/ml), isocitrate (5 mM), MgCl2 (5 mM), isocitrate dehydrogenase (0.5 U/ml), and NADP^+ (1.2 mM). The phosphate buffer was replaced with Tris buffer (90 mM) for incubations with CYP2A6 and CYP2C9 according to the manufacturer's recommendation. All incubations were performed at 37°C for 30 min and terminated by adding 50 μl of ice-cold acetonitrile. Afterwards, the mixtures were centrifuged at 18,407 × g for 5 min, 70 μl of the supernatants was transferred into autosampler vials, and 1 μl was injected onto the LC-HRMS/MS system. Positive control incubations were performed with pHLM (1 mg microsomal protein/ml), and negative controls without enzyme were prepared to identify non-metabolically formed compounds. All incubations were done in duplicate.

[2] = target: T2, CYP1A2 (Homo sapiens, UniProt P05177); test: Monooxygenases activity screening, CYP1A2; format: in vitro ADME; design: key: +, detected; –: −, not detected; conditions: 25 μM 4F-MDMB-BINACA, 50 pmol/ml enzyme, 30 min, 37°C, duplicate
T2 construct: purchased Corning; host or cells: baculovirus-transfected insect cell microsomes (Supersomes)
T2 sequence (P05177 1-516): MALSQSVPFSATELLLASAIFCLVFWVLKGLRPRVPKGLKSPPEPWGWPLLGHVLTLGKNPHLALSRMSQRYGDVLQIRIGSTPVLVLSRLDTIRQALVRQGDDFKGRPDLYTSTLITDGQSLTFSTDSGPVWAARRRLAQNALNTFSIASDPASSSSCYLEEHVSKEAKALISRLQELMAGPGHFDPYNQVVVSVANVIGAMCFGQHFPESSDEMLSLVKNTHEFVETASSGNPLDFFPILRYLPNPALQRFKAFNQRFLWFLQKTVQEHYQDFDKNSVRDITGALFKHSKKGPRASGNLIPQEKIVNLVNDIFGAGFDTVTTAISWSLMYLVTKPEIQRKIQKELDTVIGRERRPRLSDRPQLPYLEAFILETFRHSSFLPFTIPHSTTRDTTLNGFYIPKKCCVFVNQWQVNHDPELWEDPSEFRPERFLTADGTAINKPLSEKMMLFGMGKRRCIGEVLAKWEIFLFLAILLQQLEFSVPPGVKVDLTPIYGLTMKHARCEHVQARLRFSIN
Method: as §1

[3] = target: T3, CYP2A6 (Homo sapiens, UniProt P11509); test: Monooxygenases activity screening, CYP2A6; format: in vitro ADME; design: key: +, detected; –: −, not detected; conditions: 25 μM 4F-MDMB-BINACA, 50 pmol/ml enzyme, 30 min, 37°C, duplicate
T3 construct: purchased Corning; host or cells: baculovirus-transfected insect cell microsomes (Supersomes)
T3 sequence (P11509 1-494): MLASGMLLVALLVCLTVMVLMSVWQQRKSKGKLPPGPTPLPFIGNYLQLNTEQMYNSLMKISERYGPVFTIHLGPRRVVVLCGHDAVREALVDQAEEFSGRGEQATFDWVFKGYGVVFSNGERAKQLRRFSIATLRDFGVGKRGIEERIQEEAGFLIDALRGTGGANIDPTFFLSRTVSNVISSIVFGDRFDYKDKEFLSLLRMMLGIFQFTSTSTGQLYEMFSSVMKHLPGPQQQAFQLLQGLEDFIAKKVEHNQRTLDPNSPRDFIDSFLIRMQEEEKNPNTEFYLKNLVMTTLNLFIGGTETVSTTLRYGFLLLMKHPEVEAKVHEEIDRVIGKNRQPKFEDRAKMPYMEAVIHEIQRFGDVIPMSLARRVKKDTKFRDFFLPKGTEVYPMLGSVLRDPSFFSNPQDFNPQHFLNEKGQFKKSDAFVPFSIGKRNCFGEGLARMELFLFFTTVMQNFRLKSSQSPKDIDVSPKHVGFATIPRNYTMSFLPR
Method: as §1

[4] = Monooxygenases activity screening, pHLM positive control; format: in vitro ADME, human; design: key: +, detected; –: −, not detected; conditions: 25 μM 4F-MDMB-BINACA, 1 mg microsomal protein/ml, 30 min, 37°C, duplicate
Method: as §1

[5] = target: T4, CYP2C19 (Homo sapiens, UniProt P33261); test: Monooxygenases activity screening, CYP2C19; format: in vitro ADME; design: key: +, detected; –: −, not detected; conditions: 25 μM 4F-MDMB-BINACA, 50 pmol/ml enzyme, 30 min, 37°C, duplicate
T4 construct: purchased Corning; host or cells: baculovirus-transfected insect cell microsomes (Supersomes)
T4 sequence (P33261 whole entry): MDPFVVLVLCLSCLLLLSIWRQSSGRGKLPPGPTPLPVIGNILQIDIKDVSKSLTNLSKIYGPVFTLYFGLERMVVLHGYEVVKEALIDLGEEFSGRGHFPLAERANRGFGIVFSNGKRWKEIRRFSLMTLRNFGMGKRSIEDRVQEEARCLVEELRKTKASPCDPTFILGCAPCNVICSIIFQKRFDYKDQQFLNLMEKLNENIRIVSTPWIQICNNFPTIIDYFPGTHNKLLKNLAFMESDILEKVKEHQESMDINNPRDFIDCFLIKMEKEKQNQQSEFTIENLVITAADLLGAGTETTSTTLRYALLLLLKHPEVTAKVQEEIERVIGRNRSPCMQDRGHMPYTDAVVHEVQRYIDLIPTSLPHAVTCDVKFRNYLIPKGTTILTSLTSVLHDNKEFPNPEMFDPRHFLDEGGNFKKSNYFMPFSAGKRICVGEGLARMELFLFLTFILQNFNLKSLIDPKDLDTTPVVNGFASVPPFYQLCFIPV
Method: as §1

[6] = target: T5, CYP2E1 (Homo sapiens, UniProt P05181); test: Monooxygenases activity screening, CYP2E1; format: in vitro ADME; design: key: +, detected; –: −, not detected; conditions: 25 μM 4F-MDMB-BINACA, 50 pmol/ml enzyme, 30 min, 37°C, duplicate
T5 construct: purchased Corning; host or cells: baculovirus-transfected insect cell microsomes (Supersomes)
T5 sequence (P05181 whole entry): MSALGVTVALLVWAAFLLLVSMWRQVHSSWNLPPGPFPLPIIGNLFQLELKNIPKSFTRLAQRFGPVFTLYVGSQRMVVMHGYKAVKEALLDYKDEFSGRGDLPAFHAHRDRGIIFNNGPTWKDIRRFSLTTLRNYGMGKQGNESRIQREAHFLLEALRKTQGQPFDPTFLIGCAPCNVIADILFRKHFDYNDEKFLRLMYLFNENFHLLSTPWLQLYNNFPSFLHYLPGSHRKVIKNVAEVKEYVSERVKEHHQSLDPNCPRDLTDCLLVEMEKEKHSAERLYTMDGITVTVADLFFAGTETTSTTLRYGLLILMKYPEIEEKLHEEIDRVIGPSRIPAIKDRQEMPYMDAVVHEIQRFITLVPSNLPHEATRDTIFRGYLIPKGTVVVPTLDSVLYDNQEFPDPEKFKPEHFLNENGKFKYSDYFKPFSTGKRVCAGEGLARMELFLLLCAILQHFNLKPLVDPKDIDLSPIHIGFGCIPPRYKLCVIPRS
Method: as §1

[7] = target: T6, CYP2D6 (Homo sapiens, UniProt P10635); test: Monooxygenases activity screening, CYP2D6; format: in vitro ADME; design: key: +, detected; –: −, not detected; conditions: 25 μM 4F-MDMB-BINACA, 50 pmol/ml enzyme, 30 min, 37°C, duplicate
T6 construct: purchased Corning; host or cells: baculovirus-transfected insect cell microsomes (Supersomes)
T6 sequence (P10635 whole entry): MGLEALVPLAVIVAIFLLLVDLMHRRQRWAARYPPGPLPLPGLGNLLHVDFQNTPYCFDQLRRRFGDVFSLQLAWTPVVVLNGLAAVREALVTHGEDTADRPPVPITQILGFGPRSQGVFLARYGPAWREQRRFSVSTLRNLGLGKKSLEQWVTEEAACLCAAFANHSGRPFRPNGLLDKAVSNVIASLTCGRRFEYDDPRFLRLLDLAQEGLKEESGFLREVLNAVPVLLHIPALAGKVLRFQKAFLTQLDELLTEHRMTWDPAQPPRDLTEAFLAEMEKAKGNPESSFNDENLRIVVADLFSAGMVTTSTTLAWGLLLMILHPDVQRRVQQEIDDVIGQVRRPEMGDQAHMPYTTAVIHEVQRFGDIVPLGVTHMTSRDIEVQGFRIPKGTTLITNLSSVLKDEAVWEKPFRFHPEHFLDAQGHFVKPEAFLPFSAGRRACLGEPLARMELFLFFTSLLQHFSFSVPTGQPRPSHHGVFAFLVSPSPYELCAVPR
Method: as §1

[8] = target: T7, CYP2B6 (Homo sapiens, UniProt P20813); test: Monooxygenases activity screening, CYP2B6; format: in vitro ADME; design: key: +, detected; –: −, not detected; conditions: 25 μM 4F-MDMB-BINACA, 50 pmol/ml enzyme, 30 min, 37°C, duplicate
T7 construct: purchased Corning; host or cells: baculovirus-transfected insect cell microsomes (Supersomes)
T7 sequence (P20813 1-491): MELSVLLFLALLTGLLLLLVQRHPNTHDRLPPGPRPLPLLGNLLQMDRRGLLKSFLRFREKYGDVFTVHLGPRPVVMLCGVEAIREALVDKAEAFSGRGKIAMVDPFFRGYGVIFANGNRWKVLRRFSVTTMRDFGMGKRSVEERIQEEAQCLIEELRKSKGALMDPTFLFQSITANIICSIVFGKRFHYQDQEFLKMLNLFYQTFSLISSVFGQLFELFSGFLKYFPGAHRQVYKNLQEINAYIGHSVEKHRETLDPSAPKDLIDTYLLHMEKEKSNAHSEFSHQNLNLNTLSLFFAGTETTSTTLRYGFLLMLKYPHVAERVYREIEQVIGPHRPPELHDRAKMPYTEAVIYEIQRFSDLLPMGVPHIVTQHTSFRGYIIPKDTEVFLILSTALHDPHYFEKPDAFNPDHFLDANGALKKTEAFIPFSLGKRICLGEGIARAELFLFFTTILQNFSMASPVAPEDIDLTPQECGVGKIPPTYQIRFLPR
Method: as §1

[9] = test system: zebrafish larvae; test: Zebrafish larvae exposure, metabolite identification by LC-HRMS/MS; conditions: for Absolute peak area, Zebrafish larvae [25 μM]: 25 μM 4F-MDMB-BINACA in medium, larvae 4 dpf, larvae extract, one replicate of n = 3, n.d. = not detected
[10] = test system: HepaRG cells; test: Incubations with HepaRG cells, metabolite identification by LC-HRMS/MS; format: in vitro ADME, human; conditions: for Absolute peak area, HepaRG [25 μM]: 25 μM parent NPS; for Absolute peak area, HepaRG [25 μM] / Absolute peak area, HepaRG [250 μM]: cell culture medium, one replicate of n = 3, n.d. = not detected; for Absolute peak area, HepaRG [250 μM]: 250 μM parent NPS
[11] = plasma, human data for ephylone and 4F-PHP from Wagmann et al., [2019b]
[12] = urine, human data for ephylone and 4F-PHP from Wagmann et al., [2019b]

Row | Structure (SMILES) | Detection of metabolite in incubation with CYP3A5 [1] | Detection of metabolite in incubation with CYP1A2 [2] | Detection of metabolite in incubation with CYP2A6 [3] | Detection of metabolite in incubation with pHLM [4] | Detection of metabolite in incubation with CYP2C19 [5] | Detection of metabolite in incubation with CYP2E1 [6] | Detection of metabolite in incubation with CYP2D6 [7] | Detection of metabolite in incubation with CYP2B6 [8] | Absolute peak area, Zebrafish larvae [25 μM] ([9]; 24 h) | Absolute peak area, HepaRG [25 μM] ([10]; 24 h) | Absolute peak area, HepaRG [250 μM] ([10]; 24 h) | also measured
1 | COC(=O)[C@@H](NC(=O)c1nn(CCCCF)c2ccccc12)C(C)(C)CO [MB16] | + | – | – | + | – | – | – | – | 5.98E+06 |  |  | 
2 | COC(=O)[C@@H](NC(=O)c1nn(CCCCO)c2ccccc12)C(C)(C)C [MB11] | + | – | – | + | – | – | – | – | 2.92E+06 | 9.30E+04 | 6.93E+06 | 
3 | CC(C)(C)C(NC(=O)c1nn(CCCCF)c2ccccc12)C(=O)O (stereo not drawn) [MB8] | – | – | – | + | – | – | – | – | 1.73E+07 | 5.16E+07 | 1.63E+09 | 
4 | COC(=O)C(NC(=O)c1nn(CCCCF)c2ccccc12)C(C)(C)C (stereo not drawn) [4F-MDMB-BINACA, methyl 2-[1-(4-fluorobutyl)-1H-indazole-3-carbonyl]amino-3,3-dimethylbutanoate] |  |  |  |  |  |  |  |  | 2.89E+09 | 1.28E+08 | 5.18E+08 | Number of phase I metabolites detected, HepaRG [25 μM] ([10]; 25 μM, 24 h): 7; Number of phase II metabolites detected, HepaRG [25 μM] ([10]; 25 μM, 24 h): 2; Number of phase I metabolites detected, HepaRG [250 μM] ([10]; 250 μM, 24 h): 12; Number of phase II metabolites detected, HepaRG [250 μM] ([10]; 250 μM, 24 h): 3; Relative number of matches with the four most abundant signals in human plasma, HepaRG [25 μM] [10, 11]: 50%; Relative number of matches with the four most abundant signals in human plasma, HepaRG [250 μM] [10, 11]: 75%; Relative number of matches with the four most abundant signals in human urine, HepaRG [25 μM] [10, 12]: 50%; Relative number of matches with the four most abundant signals in human urine, HepaRG [250 μM] [10, 12]: 100%; Number of phase I metabolites detected, Zebrafish larvae ([9]; 25 μM in medium, 24 h): 14; Number of phase II metabolites detected, Zebrafish larvae ([9]; 25 μM in medium, 24 h): 4; Relative number of matches with the four most abundant signals in human plasma, Zebrafish larvae ([9]; plasma, larvae exposed to 25 μM): 100%; Relative number of matches with the four most abundant signals in human urine, Zebrafish larvae ([9]; urine, larvae exposed to 25 μM): 75%
5 | O=C(O)c1nn(CCCCF)c2ccccc12 [MB1] | – | – | – | + | – | – | – | – |  | 3.34E+04 | 3.82E+06 | 
6 | COC(=O)[C@@H](NC(=O)c1n[nH]c2ccccc12)C(C)(C)C [MB4] | + | + | – | + | + | – | – | – | 7.45E+06 |  | 9.55E+06 | 
